#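 Results reflect a 48-hour exposure of cells in 96-well plates to compound at five concentrations. Abbreviation: GI50, concentration required for 50% inhibition of growth.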 Activity calls are given as the source filed them. Rule as the data show it: active = GI50 up to about 1.1 µM and inactive = higher.
# Columns and labels:
# Assay in all cases: NCI-60 cell line screen, 48 h
# [1] = system: A549
# [2] = system: CAKI-1
# [3] = system: COLO 205
# [4] = system: DMS-114
# [5] = system: HCT-116
# [6] = system: HCT-15
# [7] = system: IGROV-1
# [8] = system: KM12
# [9] = system: LXFL 529
# [10] = system: M14
# [11] = system: NCI-H23
# [12] = system: SF-295
# [13] = system: SK-OV-3
# [14] = system: SN12C
# [15] = system: SNB-19
# [16] = system: SW-620
# [17] = system: UACC-257
# [18] = system: HOP-92
# [19] = system: LOX IMVI
# [20] = system: HOP-62
Compound,GI50 [1],GI50 [2],GI50 [3],GI50 [4],GI50 [5],GI50 [6],GI50 [7],GI50 [8],GI50 [9],GI50 [10],GI50 [11],GI50 [12],GI50 [13],GI50 [14],GI50 [15],GI50 [16],GI50 [17],GI50 [18],GI50 [19],GI50 [20]
COc1ccc(/C=N/N=C(N)N)c(C(=O)O)c1OC,> 100 µM (inactive),> 100 µM (inactive),> 10 µM (inactive),> 100 µM (inactive),> 100 µM (inactive),> 100 µM,> 10 µM (inactive),> 100 µM (inactive),> 100 µM (inactive),> 100 µM (inactive),> 100 µM (inactive),> 100 µM (inactive),> 100 µM (inactive),> 100 µM (inactive),> 100 µM (inactive),> 100 µM (inactive),> 100 µM (inactive),–,–,–
N/C(=C\c1ccc(/C=C(\NC(=O)c2ccccc2)c2nc3c([nH]2)C(=O)c2ccccc2C3=O)cc1)c1nc2c([nH]1)C(=O)c1ccccc1C2=O,14.2 µM (inactive),14.3 µM (inactive),14.8 µM (inactive),7.55 µM (inactive),14.5 µM (inactive),13.9 µM,14.8 µM (inactive),13.7 µM (inactive),10.7 µM (inactive),16.2 µM (inactive),14.3 µM (inactive),16.5 µM (inactive),24.1 µM (inactive),14.3 µM (inactive),12.6 µM (inactive),20.4 µM (inactive),17.8 µM (inactive),7.83 µM (inactive),18.1 µM (inactive),–
COc1ccc(OC)c(NC(=O)C(=O)C(C(=O)c2ccccc2F)C2OC(=O)c3ccccc32)c1 (stereo not given),71.1 µM (inactive),67.8 µM (inactive),48.3 µM (inactive),20.8 µM (inactive),37.3 µM (inactive),62.5 µM,89.3 µM (inactive),> 100 µM (inactive),77.3 µM (inactive),> 100 µM (inactive),57.1 µM (inactive),45.8 µM (inactive),59.4 µM (inactive),35.9 µM (inactive),36 µM (inactive),49.2 µM (inactive),> 100 µM (inactive),> 100 µM (inactive),25.2 µM (inactive),50.2 µM (inactive)
Nc1nc(SCCNC(=O)CCc2ccc(O)c(I)c2)nc2c1ncn2C1OC(CO)C(O)C1O (stereo not given),> 100 µM (inactive),–,> 100 µM (inactive),> 100 µM (inactive),> 100 µM (inactive),> 100 µM,> 100 µM (inactive),> 100 µM (inactive),> 100 µM (inactive),> 100 µM (inactive),> 100 µM (inactive),> 100 µM (inactive),> 100 µM (inactive),> 100 µM (inactive),> 100 µM (inactive),> 100 µM (inactive),> 100 µM (inactive),> 100 µM (inactive),–,> 100 µM (inactive)
O=c1c(Cc2c(O)oc3cc(O)ccc3c2=O)c(O)oc2cc(O)ccc12,> 100 µM (inactive),> 100 µM (inactive),> 100 µM (inactive),–,> 100 µM (inactive),> 100 µM,> 100 µM (inactive),–,–,> 100 µM (inactive),> 100 µM (inactive),> 100 µM (inactive),> 100 µM (inactive),> 100 µM (inactive),> 100 µM (inactive),> 100 µM (inactive),> 100 µM (inactive),> 100 µM (inactive),> 100 µM (inactive),> 100 µM (inactive)
CC(=O)NC1=C[C@@H]([C@H]2COC(C)(C)O2)OC1=O,> 100 µM (inactive),> 100 µM (inactive),> 100 µM (inactive),> 100 µM (inactive),> 100 µM (inactive),> 100 µM,> 100 µM (inactive),> 100 µM (inactive),–,–,> 100 µM (inactive),> 100 µM (inactive),> 100 µM (inactive),> 100 µM (inactive),> 100 µM (inactive),> 100 µM (inactive),> 100 µM (inactive),> 100 µM (inactive),> 100 µM (inactive),> 100 µM (inactive)
CCOC(=O)c1csc(NC(=O)CCN(CC)CC)n1,55 µM (inactive),20.5 µM (inactive),33.8 µM (inactive),–,–,27.6 µM,39.7 µM (inactive),23.5 µM (inactive),–,25 µM (inactive),64.7 µM (inactive),> 100 µM (inactive),> 100 µM (inactive),–,> 100 µM (inactive),27.2 µM (inactive),28.1 µM (inactive),24.5 µM (inactive),33.2 µM (inactive),> 100 µM (inactive)
CCOC(=O)/C=C(\C)c1ccc(OC)cc1,> 100 µM (inactive),> 100 µM (inactive),> 100 µM (inactive),> 100 µM (inactive),> 100 µM (inactive),> 100 µM,> 100 µM (inactive),> 100 µM (inactive),> 100 µM (inactive),> 100 µM (inactive),> 100 µM (inactive),> 100 µM (inactive),–,> 100 µM (inactive),> 100 µM (inactive),> 100 µM (inactive),> 100 µM (inactive),> 100 µM (inactive),> 100 µM (inactive),–
N=C(N)Nc1ncccc1[N+](=O)[O-],> 100 µM (inactive),> 100 µM (inactive),21.8 µM (inactive),15.8 µM (inactive),38.4 µM (inactive),82.2 µM,> 93.8 µM (inactive),57.4 µM (inactive),–,–,> 100 µM (inactive),> 100 µM (inactive),> 100 µM (inactive),> 100 µM (inactive),> 100 µM (inactive),> 100 µM (inactive),23.6 µM (inactive),> 100 µM (inactive),33.1 µM (inactive),> 100 µM (inactive)
CCOC(=O)/C(C#N)=C1/SC(C(=O)N/N=C/c2ccc(OC)cc2)=C(N)N1c1ccccc1,> 100 µM (inactive),–,> 100 µM (inactive),–,> 100 µM (inactive),–,3.1 µM (inactive),> 100 µM (inactive),60.4 µM (inactive),–,> 100 µM (inactive),16.1 µM (inactive),32.4 µM (inactive),–,> 100 µM (inactive),> 100 µM (inactive),59.4 µM (inactive),3.82 µM (inactive),–,71 µM (inactive)
